Assay results taken from the NIST ThermoML archive (doi:10.1021/je049762q).
Values joined by “and” are separate entries in the source; they are usually repeats but may differ in a detail not shown here. Equal values may be shown once.

Assay: molar heat capacity at constant pressure
Conditions: 101.33 kPa

Brc1cc(Br)cc(Br)c1 [1,3,5-tribromobenzene]
molar heat capacity at constant pressure
Conditions | Crystal | Liquid
6.52 K | 1.72 J/K/mol | –
6.88 K | 2.15 J/K/mol | –
6.95 K | 2.19 J/K/mol | –
7.15 K | 2.56 J/K/mol | –
7.61 K | 3.13 J/K/mol | –
7.91 K | 3.91 J/K/mol | –
8.43 K | 4.55 J/K/mol | –
8.64 K | 4.82 J/K/mol | –
9.26 K | 5.6 J/K/mol | –
9.48 K | 6.06 J/K/mol | –
9.98 K | 6.73 J/K/mol | –
10 K | 6.75 J/K/mol | –
10.55 K | 7.4 J/K/mol | –
10.76 K | 7.57 J/K/mol | –
11.09 K | 8.13 J/K/mol | –
11.43 K | 8.59 J/K/mol | –
12.2 K | 9.56 J/K/mol | –
12.4 K | 9.97 J/K/mol | –
13.02 K | 11.12 J/K/mol | –
13.44 K | 11.86 J/K/mol | –
13.52 K | 11.96 J/K/mol | –
14.28 K | 13.92 J/K/mol | –
14.41 K | 14.32 J/K/mol | –
14.86 K | 15.39 J/K/mol | –
15 K | 15.69 J/K/mol | –
15.24 K | 16.16 J/K/mol | –
15.97 K | 17.16 J/K/mol | –
16.24 K | 17.78 J/K/mol | –
16.42 K | 18.22 J/K/mol | –
16.81 K | 18.82 J/K/mol | –
17.75 K | 20.23 J/K/mol | –
18.13 K | 21.04 J/K/mol and 21.05 J/K/mol | –
18.35 K | 21.29 J/K/mol | –
18.91 K | 22.41 J/K/mol | –
19.3 K | 22.84 J/K/mol | –
19.96 K | 24.11 J/K/mol | –
20 K | 24.16 J/K/mol | –
20.32 K | 24.44 J/K/mol | –
20.36 K | 25.02 J/K/mol | –
20.69 K | 25.21 J/K/mol | –
20.91 K | 25.52 J/K/mol | –
21.28 K | 25.98 J/K/mol | –
21.33 K | 26.05 J/K/mol | –
22.22 K | 27.37 J/K/mol | –
22.85 K | 28.05 J/K/mol | –
23.13 K | 28.66 J/K/mol | –
23.5 K | 29.01 J/K/mol | –
25 K | 30.93 J/K/mol | –
25.43 K | 31.5 J/K/mol | –
25.52 K | 31.63 J/K/mol | –
25.66 K | 31.94 J/K/mol | –
27.61 K | 34.27 J/K/mol | –
28.08 K | 34.74 J/K/mol | –
29.8 K | 36.66 J/K/mol | –
30 K | 36.88 J/K/mol | –
30.83 K | 37.81 J/K/mol | –
32.02 K | 39.23 J/K/mol | –
33.45 K | 40.57 J/K/mol | –
34.29 K | 41.49 J/K/mol | –
35.86 K | 42.74 J/K/mol | –
36.6 K | 43.58 J/K/mol | –
38.95 K | 45.82 J/K/mol | –
40 K | 46.88 J/K/mol | –
41.31 K | 48.18 J/K/mol | –
43.74 K | 50.35 J/K/mol | –
46.2 K | 52.53 J/K/mol | –
48.69 K | 54.78 J/K/mol | –
50 K | 55.72 J/K/mol | –
51.22 K | 56.59 J/K/mol | –
53.78 K | 58.73 J/K/mol | –
56.38 K | 60.57 J/K/mol | –
59 K | 62.4 J/K/mol | –
60 K | 63.1 J/K/mol | –
61.66 K | 64.25 J/K/mol | –
64.34 K | 66.1 J/K/mol | –
67.06 K | 67.97 J/K/mol | –
69.79 K | 69.75 J/K/mol | –
70 K | 69.88 J/K/mol | –
72.55 K | 71.4 J/K/mol | –
75.33 K | 73.12 J/K/mol | –
78.14 K | 74.71 J/K/mol | –
80 K | 75.73 J/K/mol | –
80.95 K | 76.25 J/K/mol | –
83.79 K | 77.97 J/K/mol | –
84.19 K | 78.04 J/K/mol | –
86.63 K | 79.59 J/K/mol | –
87.47 K | 79.75 J/K/mol | –
89.49 K | 81.07 J/K/mol | –
90 K | 81.22 J/K/mol | –
90.65 K | 81.41 J/K/mol | –
92.36 K | 82.26 J/K/mol | –
93.74 K | 82.91 J/K/mol | –
95.25 K | 83.54 J/K/mol | –
96.75 K | 84.24 J/K/mol | –
98.15 K | 85.01 J/K/mol | –
99.69 K | 85.65 J/K/mol | –
100 K | 85.83 J/K/mol | –
101.04 K | 86.47 J/K/mol | –
102.61 K | 87.46 J/K/mol | –
105.54 K | 88.95 J/K/mol | –
108.48 K | 90.22 J/K/mol | –
110 K | 90.89 J/K/mol | –
111.43 K | 91.51 J/K/mol | –
114.39 K | 92.81 J/K/mol | –
117.36 K | 94.15 J/K/mol | –
120 K | 95.33 J/K/mol | –
120.34 K | 95.48 J/K/mol | –
123.32 K | 96.75 J/K/mol | –
126.31 K | 98.04 J/K/mol | –
129.31 K | 99.34 J/K/mol | –
130 K | 99.63 J/K/mol | –
132.31 K | 100.61 J/K/mol | –
135.32 K | 101.87 J/K/mol | –
138.33 K | 103.08 J/K/mol | –
140 K | 103.77 J/K/mol | –
141.34 K | 104.32 J/K/mol | –
144.36 K | 105.54 J/K/mol | –
147.39 K | 106.84 J/K/mol | –
150 K | 107.74 J/K/mol | –
150.41 K | 107.89 J/K/mol | –
153.44 K | 109.1 J/K/mol | –
156.48 K | 110.25 J/K/mol | –
159.51 K | 111.32 J/K/mol | –
160 K | 111.51 J/K/mol | –
162.55 K | 112.49 J/K/mol | –
165.6 K | 113.63 J/K/mol | –
168.64 K | 114.79 J/K/mol | –
170 K | 115.31 J/K/mol | –
171.69 K | 115.96 J/K/mol | –
174.73 K | 117.13 J/K/mol | –
177.78 K | 118.3 J/K/mol | –
180 K | 119.09 J/K/mol | –
180.84 K | 119.39 J/K/mol | –
183.89 K | 120.53 J/K/mol | –
186.94 K | 121.72 J/K/mol | –
190 K | 122.82 J/K/mol | –
193.05 K | 123.91 J/K/mol | –
196.11 K | 125.07 J/K/mol | –
199.17 K | 126.16 J/K/mol | –
200 K | 126.45 J/K/mol | –
202.22 K | 127.16 J/K/mol | –
205.28 K | 128.31 J/K/mol | –
208.34 K | 129.4 J/K/mol | –
210 K | 130.05 J/K/mol | –
211.4 K | 130.6 J/K/mol | –
214.46 K | 131.79 J/K/mol | –
217.52 K | 132.78 J/K/mol | –
220 K | 133.7 J/K/mol | –
220.58 K | 133.9 J/K/mol | –
223.64 K | 135.03 J/K/mol | –
226.7 K | 136.15 J/K/mol | –
229.77 K | 137.26 J/K/mol | –
230 K | 137.34 J/K/mol | –
232.83 K | 138.31 J/K/mol | –
235.89 K | 139.48 J/K/mol | –
238.95 K | 140.62 J/K/mol | –
240 K | 141.01 J/K/mol | –
242.01 K | 141.75 J/K/mol | –
245.07 K | 142.87 J/K/mol | –
248.12 K | 143.98 J/K/mol | –
250 K | 144.67 J/K/mol | –
251.17 K | 145.1 J/K/mol | –
254.22 K | 146.19 J/K/mol | –
257.27 K | 147.31 J/K/mol | –
260 K | 148.3 J/K/mol | –
260.32 K | 148.41 J/K/mol | –
263.36 K | 149.52 J/K/mol | –
266.41 K | 150.63 J/K/mol | –
269.46 K | 151.81 J/K/mol | –
270 K | 152.01 J/K/mol | –
272.51 K | 152.93 J/K/mol | –
275.56 K | 153.96 J/K/mol | –
278.61 K | 155.09 J/K/mol | –
280 K | 155.47 J/K/mol | –
281.65 K | 155.93 J/K/mol | –
284.69 K | 157.08 J/K/mol | –
287.74 K | 158.17 J/K/mol | –
290 K | 158.9 J/K/mol | –
290.78 K | 159.14 J/K/mol | –
293.81 K | 160 J/K/mol | –
296.86 K | 161.12 J/K/mol | –
298.15 K | 161.57 J/K/mol | –
299.91 K | 162.28 J/K/mol | –
300 K | 162.32 J/K/mol | –
302.95 K | 163.09 J/K/mol | –
306 K | 164.04 J/K/mol | –
306.85 K | 164.3 J/K/mol | –
309.04 K | 165.03 J/K/mol | –
310 K | 165.35 J/K/mol | –
310.25 K | 165.42 J/K/mol | –
312.08 K | 166.05 J/K/mol | –
313.63 K | 166.52 J/K/mol | –
315.12 K | 167.1 J/K/mol | –
317 K | 167.67 J/K/mol | –
320 K | 168.98 J/K/mol | –
320.37 K | 169.11 J/K/mol | –
323.72 K | 169.81 J/K/mol | –
327.06 K | 170.85 J/K/mol | –
330 K | 172.33 J/K/mol | –
330.4 K | 172.47 J/K/mol | –
333.72 K | 173.45 J/K/mol | –
337.03 K | 174.6 J/K/mol | –
340 K | 175.62 J/K/mol | –
340.34 K | 175.73 J/K/mol | –
343.63 K | 176.72 J/K/mol | –
346.92 K | 178.18 J/K/mol | –
350 K | 179.02 J/K/mol | –
350.2 K | 178.96 J/K/mol | –
353.46 K | 180.41 J/K/mol | –
356.72 K | 181 J/K/mol | –
357.65 K | 181.37 J/K/mol | –
359.97 K | 182.49 J/K/mol | –
360 K | 182.5 J/K/mol | –
360.9 K | 182.62 J/K/mol | –
363.22 K | 183.54 J/K/mol | –
364.15 K | 183.8 J/K/mol | –
366.45 K | 185.01 J/K/mol | –
367.38 K | 185.01 J/K/mol | –
369.68 K | 185.57 J/K/mol | –
370 K | 185.85 J/K/mol | –
370.61 K | 186.07 J/K/mol | –
372.9 K | 186.88 J/K/mol | –
373.83 K | 187.15 J/K/mol | –
376.11 K | 187.95 J/K/mol | –
377.04 K | 188.3 J/K/mol | –
379.31 K | 189.23 J/K/mol | –
380 K | 189.36 J/K/mol | –
380.25 K | 189.56 J/K/mol | –
390 K | 192.86 J/K/mol | –
394.96 K | 194.6 J/K/mol | 220.84 J/K/mol
399 K | – | 222.12 J/K/mol
400 K | – | 222.34 J/K/mol
401.94 K | – | 222.86 J/K/mol
404.87 K | – | 223.83 J/K/mol
407.79 K | – | 224.32 J/K/mol
410 K | – | 225.31 J/K/mol
410.72 K | – | 225.87 J/K/mol
413.63 K | – | 226.31 J/K/mol
